Reference: patent US12077503B2, “Substituted cyclic amides and their use as herbicides” (FMC CORPORATION, priority 2015, dated 2024)

Tests used:
Assay type in all cases: in vivo
[1] = test system: barnyardgrass (Echinochloa crus-galli); assay: Test G Pre-Emergence Protocol; settings: Echinochloa crus-galli, pre-emergence, 312 h, evaluated after 13 days
How it was run: (§1)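 Visual injury (0–100) at day 13 after a single pre-emergence spray. Rates: 15.625, 62.5, 250 g/ha in acetone–water 50:50 with 0.5% Tween 20. Growth conditions: 24/16° C, 14 h light, 65% humidity.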

corn (Zea mays) [2] = assay: Test G Pre-Emergence Protocol; settings: Zea mays, pre-emergence, 312 h, evaluated after 13 days
How it was run: as §1

[3] = test system: giant foxtail (Setaria faberi); assay: Test G Pre-Emergence Protocol; settings: Setaria faberi, pre-emergence, 312 h, evaluated after 13 days
How it was run: as §1

[4] = test system: ivy-leaved morning glory (Ipomoea hederacea); assay: Test G Pre-Emergence Protocol; settings: Ipomoea, pre-emergence, 312 h, evaluated after 13 days
How it was run: as §1

[5] = test system: redroot pigweed (Amaranthus retroflexus); assay: Test G Pre-Emergence Protocol; settings: Amaranthus retroflexus, pre-emergence, 312 h, evaluated after 13 days
How it was run: as §1

[6] = test system: velvetleaf (Abutilon theophrasti); assay: Test G Pre-Emergence Protocol; settings: Abutilon theophrasti, pre-emergence, 312 h, evaluated after 13 days
How it was run: as §1

[7] = test system: barnyardgrass (Echinochloa crus-galli); assay: Test G Post-Emergence Protocol; settings: Echinochloa crus-galli, post-emergence, 312 h, read-out: Barnyardgrass damage rating
How it was run: (§2)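 Pot-grown seedlings, 8 days old, raised in a glasshouse at 24/16 °C day/night with 14 h light and 65% humidity, were sprayed post-emergence with test compound in acetone/water (50:50) plus 0.5% Tween 20 at 15.625, 62.5 or 250 g/ha. Damage was scored visually 13 days later on a 0–100 scale (100 = total damage).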

corn (Zea mays) [8] = assay: Test G Post-Emergence Protocol; settings: Zea mays, post-emergence, 312 h, read-out: Corn damage rating
How it was run: as §2

[9] = test system: giant foxtail (Setaria faberi); assay: Test G Post-Emergence Protocol; settings: Setaria faberi, post-emergence, 312 h, read-out: Foxtail, Giant damage rating
How it was run: as §2

[10] = test system: ivy-leaved morning glory (Ipomoea hederacea); assay: Test G Post-Emergence Protocol; settings: Ipomoea, post-emergence, 312 h, read-out: Morningglory, Ivy-leaved damage rating
How it was run: as §2

[11] = test system: redroot pigweed (Amaranthus retroflexus); assay: Test G Post-Emergence Protocol; settings: Amaranthus retroflexus, post-emergence, 312 h, read-out: Pigweed, Redroot damage rating
How it was run: as §2

[12] = test system: velvetleaf (Abutilon theophrasti); assay: Test G Post-Emergence Protocol; settings: Abutilon theophrasti, post-emergence, 312 h, read-out: Velvetleaf damage rating
How it was run: as §2

[13] = 15.625 g ai/ha, evaluated after 13 days (100=total damage to plant; 0=no damage to plant)
[14] = 62.5 g ai/ha, evaluated after 13 days, 100=total damage to plant, 0=no damage to plant
[15] = 250 g ai/ha, evaluated after 13 days, 100=total damage to plant, 0=no damage to plant

COc1cc(C2CN(C)C(=O)C2C(=O)Nc2cccc(F)c2F)cc(C(F)(F)F)c1F (stereo not drawn) [Compound 1701]
pest or weed control at 15.625 g/ha ([1]; 15.625 g ai/ha, read-out: Barnyardgrass damage rating (100=total damage to plant; 0=no damage to plant)): 0% | pest or weed control at 62.5 g/ha ([1]; 62.5 g ai/ha, 100=total damage to plant, 0=no damage to plant, read-out: Barnyardgrass damage rating): 30% | pest or weed control at 250 g/ha ([1]; 250 g ai/ha, read-out: Barnyardgrass damage rating (100=total damage to plant; 0=no damage to plant)): 70% | plant injury at 15.625 g/ha (corn (Zea mays) [2]; 15.625 g ai/ha, read-out: Corn damage rating (100=total damage to plant; 0=no damage to plant)): 0% | plant injury at 62.5 g/ha (corn (Zea mays) [2]; 62.5 g ai/ha, 100=total damage to plant, 0=no damage to plant, read-out: Corn damage rating): 0% | plant injury at 250 g/ha (corn (Zea mays) [2]; 250 g ai/ha, read-out: Corn damage rating (100=total damage to plant; 0=no damage to plant)): 30% | pest or weed control at 15.625 g/ha ([3]; 15.625 g ai/ha, read-out: Foxtail, Giant damage rating (100=total damage to plant; 0=no damage to plant)): 40% | pest or weed control at 62.5 g/ha ([3]; 62.5 g ai/ha, 100=total damage to plant, 0=no damage to plant, read-out: Foxtail, Giant damage rating): 80% | pest or weed control at 250 g/ha ([3]; 250 g ai/ha, read-out: Foxtail, Giant damage rating (100=total damage to plant; 0=no damage to plant)): 90% | pest or weed control at 15.625 g/ha ([4]; 15.625 g ai/ha, read-out: Morningglory, Ivy-leaved damage rating (100=total damage to plant; 0=no damage to plant)): 0% | pest or weed control at 62.5 g/ha ([4]; 62.5 g ai/ha, 100=total damage to plant, 0=no damage to plant, read-out: Morningglory, Ivy-leaved damage rating): 20% | pest or weed control at 250 g/ha ([4]; 250 g ai/ha, read-out: Morningglory, Ivy-leaved damage rating (100=total damage to plant; 0=no damage to plant)): 20% | pest or weed control at 15.625 g/ha ([5]; 15.625 g ai/ha, read-out: Pigweed, Redroot damage rating (100=total damage to plant; 0=no damage to plant)): 0% | pest or weed control at 62.5 g/ha ([5]; 62.5 g ai/ha, 100=total damage to plant, 0=no damage to plant, read-out: Pigweed, Redroot damage rating): 0% | pest or weed control at 250 g/ha ([5]; 250 g ai/ha, read-out: Pigweed, Redroot damage rating (100=total damage to plant; 0=no damage to plant)): 10% | pest or weed control at 15.625 g/ha ([6]; 15.625 g ai/ha, read-out: Velvetleaf damage rating (100=total damage to plant; 0=no damage to plant)): 0% | pest or weed control at 62.5 g/ha ([6]; 62.5 g ai/ha, 100=total damage to plant, 0=no damage to plant, read-out: Velvetleaf damage rating): 0% | pest or weed control at 250 g/ha ([6]; 250 g ai/ha, read-out: Velvetleaf damage rating (100=total damage to plant; 0=no damage to plant)): 0% | pest or weed control at 15.625 g/ha [7, 13]: 10% | pest or weed control at 62.5 g/ha [7, 14]: 60% | pest or weed control at 250 g/ha [7, 15]: 70% | plant injury at 15.625 g/ha (corn (Zea mays) [8]; [13]): 10% | plant injury at 62.5 g/ha (corn (Zea mays) [8]; [14]): 30% | plant injury at 250 g/ha (corn (Zea mays) [8]; [15]): 50% | pest or weed control at 15.625 g/ha [9, 13]: 40% | pest or weed control at 62.5 g/ha [9, 14]: 60% | pest or weed control at 250 g/ha [9, 15]: 60% | pest or weed control at 15.625 g/ha [10, 13]: 0% | pest or weed control at 62.5 g/ha [10, 14]: 0% | pest or weed control at 250 g/ha [10, 15]: 30% | pest or weed control at 15.625 g/ha [11, 13]: 0% | pest or weed control at 62.5 g/ha [11, 14]: 0% | pest or weed control at 250 g/ha [11, 15]: 30% | pest or weed control at 15.625 g/ha [12, 13]: 0% | pest or weed control at 62.5 g/ha [12, 14]: 0% | pest or weed control at 250 g/ha [12, 15]: 0%
